Data taken from PubChem BioAssay (NCI).
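Compound exposure: 48 hours, 5 concentrations, 96-well plates. Here, GI50 denotes the concentration required for 50% inhibition of growth. TGI denotes the concentration required for complete inhibition of growth.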

Columns and labels:
Assay in all cases: DTP human tumour cell line panel, 48 h
A498 renal = system: A498 renal
ACHN renal = system: ACHN renal
BT-549 breast = system: BT-549 breast
HCC-2998 colon = system: HCC-2998 colon
MDA-MB-231 breast = system: MDA-MB-231 breast
MDA-MB-435 = system: MDA-MB-435
NCI-H226 lung = system: NCI-H226 lung
NCI/ADR-RES ovarian = system: NCI/ADR-RES ovarian
OVCAR-5 ovarian = system: OVCAR-5 ovarian
RXF 393 renal = system: RXF 393 renal
SF-539 CNS = system: SF-539 CNS
SK-MEL-5 melanoma = system: SK-MEL-5 melanoma
SK-OV-3 ovarian = system: SK-OV-3 ovarian
SN12C renal = system: SN12C renal
786-0 renal = system: 786-0 renal
CAKI-1 renal = system: CAKI-1 renal
CCRF-CEM leukemia = system: CCRF-CEM leukemia
DU-145 prostate = system: DU-145 prostate
HCT-15 colon = system: HCT-15 colon
HL-60(TB) leukemia = system: HL-60(TB) leukemia
HOP-62 NSCLC = system: HOP-62 NSCLC
HOP-92 NSCLC = system: HOP-92 NSCLC
HT29 colon = system: HT29 colon
IGROV1 ovarian = system: IGROV1 ovarian
KM12 colon = system: KM12 colon
LOX IMVI melanoma = system: LOX IMVI melanoma
M14 melanoma = system: M14 melanoma
MALME-3M melanoma = system: MALME-3M melanoma
MOLT-4 leukemia = system: MOLT-4 leukemia
NCI-H460 lung = system: NCI-H460 lung
NCI-H522 lung = system: NCI-H522 lung
OVCAR-8 ovarian = system: OVCAR-8 ovarian
PC-3 prostate = system: PC-3 prostate
RPMI-8226 leukemia = system: RPMI-8226 leukemia
SF-268 CNS = system: SF-268 CNS
SNB-75 CNS = system: SNB-75 CNS
SR leukemia = system: SR leukemia
SW-620 colon = system: SW-620 colon
UO-31 renal = system: UO-31 renal

Cc1[nH]c(C(=O)Nc2ccccc2OCc2cccc(C(=O)NC3CCCNC3)c2)c(Cl)c1Cl (stereo unspecified)
GI50 (A498 renal): 1.8 µM | TGI (A498 renal): 5.59 µM | GI50 (ACHN renal): 1.66 µM | TGI (ACHN renal): 3.11 µM | GI50 (BT-549 breast): 2.63 µM | TGI (BT-549 breast): 9.75 µM | GI50 (HCC-2998 colon): 2.01 µM | TGI (HCC-2998 colon): 3.73 µM | GI50 (MDA-MB-231 breast): 1.75 µM | TGI (MDA-MB-231 breast): 3.38 µM | GI50 (MDA-MB-435): 1.74 µM | TGI (MDA-MB-435): 3.24 µM | GI50 (NCI-H226 lung): 2.01 µM | TGI (NCI-H226 lung): 5.31 µM | GI50 (NCI/ADR-RES ovarian): 2.96 µM | TGI (NCI/ADR-RES ovarian): 9.88 µM | GI50 (OVCAR-5 ovarian): 1.64 µM | TGI (OVCAR-5 ovarian): 3.06 µM | GI50 (RXF 393 renal): 1.48 µM | TGI (RXF 393 renal): 3.1 µM | GI50 (SF-539 CNS): 1.69 µM | TGI (SF-539 CNS): 3.15 µM | GI50 (SK-MEL-5 melanoma): 1.71 µM | TGI (SK-MEL-5 melanoma): 3.11 µM | GI50 (SK-OV-3 ovarian): 8.91 µM | TGI (SK-OV-3 ovarian): 26.9 µM | GI50 (SN12C renal): 1.9 µM | TGI (SN12C renal): 3.72 µM

Cc1ccc(-c2cc3nc(C(Cl)Cl)nc(-c4ccco4)n3n2)cc1
GI50 (786-0 renal): 2.03 µM | TGI (786-0 renal): > 100 µM | GI50 (ACHN renal): 0.273 µM | TGI (ACHN renal): 1.36 µM | GI50 (BT-549 breast): > 100 µM | TGI (BT-549 breast): > 100 µM | GI50 (CAKI-1 renal): 0.832 µM | TGI (CAKI-1 renal): 4.74 µM | GI50 (CCRF-CEM leukemia): > 100 µM | TGI (CCRF-CEM leukemia): > 100 µM | GI50 (DU-145 prostate): 0.404 µM | TGI (DU-145 prostate): 2.35 µM | GI50 (HCC-2998 colon): 0.321 µM | TGI (HCC-2998 colon): 1.4 µM | GI50 (HCT-15 colon): 0.845 µM | TGI (HCT-15 colon): > 100 µM | GI50 (HL-60(TB) leukemia): 0.348 µM | TGI (HL-60(TB) leukemia): 3.25 µM | GI50 (HOP-62 NSCLC): 0.298 µM | TGI (HOP-62 NSCLC): 3.82 µM | GI50 (HOP-92 NSCLC): 0.339 µM | TGI (HOP-92 NSCLC): 2.69 µM | GI50 (HT29 colon): 0.328 µM | TGI (HT29 colon): 1.23 µM | GI50 (IGROV1 ovarian): 2.65 µM | TGI (IGROV1 ovarian): > 100 µM | GI50 (KM12 colon): 1.81 µM | TGI (KM12 colon): 5.52 µM | GI50 (LOX IMVI melanoma): > 100 µM | TGI (LOX IMVI melanoma): > 100 µM | GI50 (M14 melanoma): > 100 µM | TGI (M14 melanoma): > 100 µM | GI50 (MALME-3M melanoma): > 100 µM | TGI (MALME-3M melanoma): > 100 µM | GI50 (MDA-MB-231 breast): 0.289 µM | TGI (MDA-MB-231 breast): 1.85 µM | GI50 (MOLT-4 leukemia): > 100 µM | TGI (MOLT-4 leukemia): > 100 µM | GI50 (NCI-H226 lung): > 100 µM | TGI (NCI-H226 lung): > 100 µM | GI50 (NCI-H460 lung): 0.352 µM | TGI (NCI-H460 lung): 1.47 µM | GI50 (NCI-H522 lung): > 100 µM | TGI (NCI-H522 lung): > 100 µM | GI50 (OVCAR-8 ovarian): 0.604 µM | TGI (OVCAR-8 ovarian): > 100 µM | GI50 (PC-3 prostate): 0.506 µM | TGI (PC-3 prostate): 4.49 µM | GI50 (RPMI-8226 leukemia): 2.38 µM | TGI (RPMI-8226 leukemia): > 100 µM | GI50 (SF-268 CNS): 1.65 µM | TGI (SF-268 CNS): > 100 µM | GI50 (SF-539 CNS): 0.927 µM | TGI (SF-539 CNS): 3.33 µM | GI50 (SK-MEL-5 melanoma): > 100 µM | TGI (SK-MEL-5 melanoma): > 100 µM | GI50 (SK-OV-3 ovarian): 3.09 µM | TGI (SK-OV-3 ovarian): > 100 µM | GI50 (SN12C renal): > 100 µM | TGI (SN12C renal): > 100 µM | GI50 (SNB-75 CNS): 0.186 µM | TGI (SNB-75 CNS): 1.71 µM | GI50 (SR leukemia): > 100 µM | TGI (SR leukemia): > 100 µM | GI50 (SW-620 colon): 0.583 µM | TGI (SW-620 colon): > 100 µM | GI50 (UO-31 renal): 0.523 µM | TGI (UO-31 renal): 3.99 µM
